Laboratory results from publication PMC8805583, “Discovery of Herbacetin as a Novel SGK1 Inhibitor to Alleviate Myocardial Hypertrophy” (Advanced Science, 2021).

How the values were obtained:
SGK2 = target: T1, SGK2 (Homo sapiens, UniProt Q9HBY8); assay: KinaseProfiler Assay, AGC kinase panel; type: biochemical; details: HBT 10 µmol; normalized by positive inhibitors
T1 construct: purchased Eurofins Discovery (KinaseProfiler Service)
T1 sequence (Q9HBY8 1-367): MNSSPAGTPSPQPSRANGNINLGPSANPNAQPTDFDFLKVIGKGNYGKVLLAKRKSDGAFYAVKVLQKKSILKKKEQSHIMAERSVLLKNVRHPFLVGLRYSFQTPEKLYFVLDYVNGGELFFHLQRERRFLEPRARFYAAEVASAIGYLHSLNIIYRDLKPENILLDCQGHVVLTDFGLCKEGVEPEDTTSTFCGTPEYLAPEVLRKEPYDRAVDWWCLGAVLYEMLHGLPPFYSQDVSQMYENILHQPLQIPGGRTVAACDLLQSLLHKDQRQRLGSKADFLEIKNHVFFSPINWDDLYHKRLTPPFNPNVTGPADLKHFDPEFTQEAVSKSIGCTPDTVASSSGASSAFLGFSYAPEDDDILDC
Description: 20 structurally related flavonoids of HBT were collected, which differ in the number and position of —OH groups, and examined for their effects on SGK1 activity. Based on the docking prediction, the —OH group at the C‐4’ position of HBT was required for the interaction with the key SGK1 residue D177. Therefore, the 20 flavonoids were divided into two classes according to the presence or absence of an —OH group at C‐4’ (Figure 4B). At both tested concentrations, flavonoids with an —OH group at C‐4’ (class A) inhibited SGK1 more than those without an —OH group at C‐4’ (class B) (Figure 4C). The IC50 of each compound is listed in Figure 4D; and Figure S6 (Supporting Information). […] Conversely, the absence of an ‐OH group at C‐8 led to a greater than 10‐fold reduction in flavonoid SGK1 inhibitory activity, as shown by the performance of A1 or A4. […] The inhibitory activity of HBT (10 µmol) against 28 human AGC kinases was tested by KinaseProfiler Assay (Eurofins Discovery). The percentage of HBT's inhibitory activity against each kinase was normalized by the respective positive inhibitors of AGC kinases.
The initial crystal structures of SGK1 (PDB entry: 3HDN, 3HDM, and 2R5T) were obtained from the Protein Data Bank (PDB). The prepared inhibitors were then docked by Glide with the extra precision (XP) scoring mode to estimate the binding affinity for each protein–ligand complex. The detailed process of docking has been described previously.^[ [46] ^] HEK293T cells were transfected with SGK1 mutant plasmids. After 24 h, cells were lysed and immunoprecipitated with anti‐FLAG antibody and beads. Immune complexes were washed with kinase buffer and incubated in kinase buffer with substrate peptide for 1 h at 30 ℃ followed by LC/MS measurement as described above. KINOMEscan Profiling Service and KinaseProfiler Service Assay were provided by Eurofins Discovery.

control mice = assay: HBT in control mice (safety); type: in vivo
Description: Finally, we evaluate the safety and pharmacokinetics of HBT to ensure its druggability. […] Single dose administration of HBT at 40 mg kg^−1 was uptaken rapidly with a maximal plasma concentration of ≈6.73 ng mL^−1 after 10 min (Figure S14A, Supporting Information).
Figure S12. The mice were divided into two groups: Sham, Sham mice treated with HBT (Ctrl + HBT). (A) Schedule of animal treatments. (B) Heart weight/Body weight ratio (HW/BW) was detected in Ctrl and Ctrl + HBT group. (C-D) Echocardiography assessments were performed in the two groups. n=10-12. (E) HE in different groups of mice. n=4, Scale bar=50 μm. (F) The phosphorylation level of SGK1 in myocardial tissues in the two groups (Ctrl, Ctrl + HBT), n=4. Data were analyzed using unpaired two-tailed t test and data were expressed as means ± SD, ns: no significant.
(1 picture or pasted object on this page, not shown here)
Figure S13. Serum level of biochemical markers in mice of Ctrl and Ctrl + HBT groups. Data were analyzed using unpaired two-tailed t test and data were expressed as means ± SD, ns: no […]
Figure S14. Plasma concentration (A) and in vivo distribution (B) of HBT after single oral administration with dosage of 40mg/kg rat weight (n=5-6). The quantitation of HBT was performed by LC-MS/MS analysis. […]

Structure (SMILES): O=c1c(O)c(-c2ccc(O)cc2)oc2c(O)c(O)cc(O)c12 [HBT, herbacetin]
- inhibitory activity on SGK2 (SGK2): 105%
- heart weight, cardiac function, cardiac histopathology (control mice; control mice): no adverse effect
- serum level of regular biomarkers (ALT, AST, TCHO) (control mice; control versus HBT-treated mice): no significant difference
